Publication PMC9564337, “Development of a Neurotensin-Derived ^68Ga-Labeled PET Ligand with High In Vivo Stability for Imaging of NTS1 Receptor-Expressing Tumors” (Cancers, 2022)
Like-named read-outs stand apart in the source and are kept apart here. Marks after values point to notes of the source that are not given here.

How the values were obtained:
[1] = cited from earlier work
[2] = in vitro; format: in vitro ADME; settings: human; for remaining at 1 h, 100 µM / remaining at 6 h, 100 µM / remaining at 24 h, 100 µM / remaining at 48 h, 100 µM: plasma; for remaining at 1 h, 100 µM: pH 7.4, % Intact Peptide in Plasma after 1 h; for remaining at 6 h, 100 µM: pH 7.4, % Intact Peptide in Plasma after 6 h; for remaining at 24 h, 100 µM: pH 7.4, % Intact Peptide in Plasma after 24 h; for remaining at 48 h, 100 µM: pH 7.4, % Intact Peptide in Plasma after 48 h
Description: The concentration of the peptides in plasma/PBS (1:2 v/v) was 80 and 4 μM (recovery determination) or 100 μM (stability tests). Data analysis was based on UV detection at 220 nm (8, 9, 11, 12, 14-18, 21-23, 38-49, and 54-57) or fluorescence detection at 275/305 nm (19 and 20). Reference samples, representing 100% recovery, were prepared in duplicate (8, 9, 11, 14-16, and 19-21) or quadruplicate (12, 17, 18, 22, 23, 38-49, and 54-57). Recovery ratios were obtained by dividing the recovery of the peptide by the recovery of IS for each individual sample (n = 3-5). The obtained recoveries and the recovery ratios are summarized in Table S2, Supplementary Materials. […] Instead, the recovery ratios determined for the previously reported, structurally closely related peptide […] [40] were used for calculating the amount of remaining intact peptide in plasma.

[3] = target: hNTS2R (Homo sapiens, UniProt O95665); assay: radioligand competition binding with [3H]UR-MK300 at intact HEK293T-hNTS2R cells; settings: [3H]UR-MK300 c = 10 nM
Description: Two days prior to the experiment, white 96-well plates with clear bottoms (Costar, catalog no. 3610) were treated with poly-D-lysine hydrobromide (Sigma-Aldrich) for 10 min. The wells were washed with H2O and the plates were dried on air at rt overnight. […] After removal of the glutaraldehyde solution, the wells were washed twelve times with H2O and two times with culture medium (150–300 µL). […] On the day of the experiment, the culture medium was carefully removed using a multi-channel pipette (Transferpette S-12, Brand, Wertheim, Germany) and the cells were washed once with Dulbecco’s phosphate-buffered saline (D-PBS) containing Ca^2+ and Mg^2+ (1.8 mM CaCl2, 2.68 mM KCl, 1.47 mM KH2PO4, 3.98 mM MgSO4, 136.9 mM NaCl and 8.06 mM Na2HPO4) (200 μL, rt) followed by the careful pre-filling of the wells with 180 µL (total binding) or 160 µL (unspecific and competition binding) of D-PBS, supplemented with 1% BSA and 100 μg/mL bacitracin (Serva, Heidelberg, Germany) (in the following referred to as binding buffer). To determine total binding, 20 µL of a solution of the radioligand in binding buffer (10-fold concentrated compared to the final concentration) were added. […] To determine the displacing effect of a compound of interest, 20 µL of a solution of the respective compound in binding buffer (10-fold concentrated) and 20 µL of a 10-fold concentrated solution of the radioligand in binding buffer were added. During the incubation period of 2 h at 23 °C, the plates were gently shaken. […] The plates were sealed with a transparent sealing tape (permanent seal for microplates, PerkinElmer, product no. 1450–461) and turned upside down several times to achieve complete mixing. Prior to the measurement of the radioactivity with a MicroBeta2 plate counter (PerkinElmer), the plates were kept in the dark for at least 1 h. All experiments were performed in triplicate.

[4] = target: T1, hNTS1R (Homo sapiens, UniProt P30989); assay: radioligand competition binding with [3H]UR-MK300 at intact HT-29 cells; settings: for Ki / pKi ± SD NTS1R: [3H]UR-MK300 c = 1 nM, HT-29 cells, 23 °C
T1 construct: intact HT-29 colon carcinoma cells expressing the hNTS1R; host or cells: HT-29 human colon carcinoma cells
From the text: Specific binding data (obtained by subtracting unspecific binding from total binding) were normalized (100% = specifically bound radioligand in the absence of competitor) and plotted over log(concentration of competitor) followed by a four-parameter logistic fit (SigmaPlot 12.5, Systat Software, San José, CA, USA) (note: in the case of 40, the lower curve plateau of the sigmoidal fit was constrained to >0). […] The Ki values from individual experiments were transformed to pKi values, followed by the calculation of mean pKi values ± SD.

[5] = read-out: Ki [nM] NTS2R (converted)
[6] = read-out: pKi ± SD NTS2R (converted)
[7] = read-out: Ki [nM] NTS1R (converted)
[8] = read-out: pKi ± SD NTS1R (converted)

Sequence of hNTS2R (O95665 whole entry): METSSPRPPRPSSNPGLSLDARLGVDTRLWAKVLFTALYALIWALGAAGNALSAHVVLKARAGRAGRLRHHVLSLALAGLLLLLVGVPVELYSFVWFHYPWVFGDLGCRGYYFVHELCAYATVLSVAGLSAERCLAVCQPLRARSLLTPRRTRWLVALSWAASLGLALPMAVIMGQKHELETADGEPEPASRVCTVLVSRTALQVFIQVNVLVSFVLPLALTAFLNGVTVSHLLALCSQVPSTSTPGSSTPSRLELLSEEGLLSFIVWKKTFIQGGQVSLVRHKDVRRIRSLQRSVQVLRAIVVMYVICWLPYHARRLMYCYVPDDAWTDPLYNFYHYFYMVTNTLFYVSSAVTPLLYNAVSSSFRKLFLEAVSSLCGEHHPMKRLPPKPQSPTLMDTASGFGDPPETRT
T1 sequence (P30989 whole entry): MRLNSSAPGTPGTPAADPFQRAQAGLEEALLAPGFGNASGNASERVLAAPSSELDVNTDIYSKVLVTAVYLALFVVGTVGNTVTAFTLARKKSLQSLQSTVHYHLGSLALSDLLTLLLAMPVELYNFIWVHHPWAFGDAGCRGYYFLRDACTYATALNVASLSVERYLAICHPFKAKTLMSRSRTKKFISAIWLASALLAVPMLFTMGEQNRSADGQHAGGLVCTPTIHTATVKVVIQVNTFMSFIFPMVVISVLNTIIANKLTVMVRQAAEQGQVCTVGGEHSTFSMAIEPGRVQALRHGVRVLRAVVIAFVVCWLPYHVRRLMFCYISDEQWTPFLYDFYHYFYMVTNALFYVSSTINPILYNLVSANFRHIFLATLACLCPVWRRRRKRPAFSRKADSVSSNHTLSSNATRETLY

| remaining at 1 h, 100 µM [2] | remaining at 6 h, 100 µM [2] | remaining at 24 h, 100 µM [2] | remaining at 48 h, 100 µM [2] | Ki [3, 5] | Ki [3, 6] | NTS1R Selectivity (Ratio Ki (NTS2R)/Ki (NTS1R)) [4] | Ki [4, 7] | Ki [4, 8] | % Intact Peptide in Plasma after 24 h ([2]; 100 µM, pH 7.4) | Compound | other results |
| --- | --- | --- | --- | --- | --- | --- | --- | --- | --- | --- | --- |
| – | – | – | – | – | – | – | – | – | – | CC[C@H](C)[C@H](NC(=O)[C@H](Cc1ccc(O)cc1)NC(=O)[C@@H]1CCCN1C(=O)[C@H](CCCNC(=N)N)NC(=O)[C@@H](N)CCCNC(=N)N)C(=O)N[C@@H](CC(C)C)C(=O)O [Compound 1, Arg^8-Arg^9-Pro^10-Tyr^11-Ile^12-Leu^13] | plasma half-life [1]: only a few minutes; % Intact Peptide in Plasma after 10 min ([1]; human plasma, 37 °C, 10 min, ref Schindler et al. [40]): 23 ^d %; % Intact Peptide in Plasma after 1 h ([1]; human plasma, 37 °C, 1 h, ref Schindler et al. [40]): <1 ^d %; % Intact Peptide in Plasma after 24 h ([1]; human plasma, 37 °C, 24 h, ref Schindler et al. [40]): <1 ^d %; % Intact Peptide in Plasma after 48 h ([1]; human plasma, 37 °C, 48 h, ref Schindler et al. [40]): <1 ^d % |
| > 99% | > 99% | > 99% | > 99% | 22 nM | 20.9 nM | 4.2 | 5.3 nM | – | – | CN[C@@H](CCCNC(=N)N)C(=O)N[C@@H](CCCNC(=N)NC(=O)NCCCCN)C(=O)N1CCC[C@H]1C(=O)N[C@@H](Cc1ccc(O)cc1)C(=O)N[C@H](C(=O)N[C@@H](CC(C)C)C(=O)O)C(C)(C)C [Compound 8] | – |
| > 99% | > 99% | > 99% | > 99% | 27 nM | – | 2.1 | 13 nM | – | – | CC(C)C[C@H](NC(=O)[C@@H](NC(=O)[C@H](Cc1ccc(O)cc1)NC(=O)[C@@H]1CCCN1C(=O)[C@H](CCCNC(=N)NC(=O)NCCCCN)N(C)C(=O)[C@@H](N)CCCNC(=N)N)C(C)(C)C)C(=O)O [Compound 11] | – |
| – | – | – | – | 79 nM | – | 2.8 | 28 nM | 21.9 nM | – | CN[C@@H](CCCNC(=N)N)C(=O)N[C@@H](CCCNC(=N)NC(=O)NCCCCNC(=O)CN1CCN(CC(=O)O)CCN(CC(=O)O)CCN(CC(=O)O)CC1)C(=O)N1CCC[C@H]1C(=O)N[C@@H](Cc1ccc(O)cc1)C(=O)N[C@H](C(=O)N[C@@H](CC(C)C)C(=O)O)C(C)(C)C [Compound 14] | – |
| 97 ± 1% | 99 ± 1% | – | – | 230 nM | 224 nM | 6.4 | 36 nM | – | 98 ± 1% | CC(C)C[C@H](NC(=O)[C@@H](NC(=O)[C@H](Cc1ccc(O)cc1)NC(=O)[C@@H]1CCCN1C(=O)[C@H](CCCNC(=N)NC(=O)NCCCCNC(=O)CN1CCN(CC(=O)O)CCN(CC(=O)O)CCN(CC(=O)O)CC1)N(C)C(=O)[C@@H](N)CCCNC(=N)N)C(C)(C)C)C(=O)O [Compound 17] | – |
| > 99% | > 99% | 36 ± 1% | 4.2 ± 0.6% | 73 nM | – | 4.6 | 16 nM | – | – | CN[C@@H](CCCNC(=N)N)C(=O)N[C@@H](CCCNC(N)=NC(=O)NCCCCNC(=O)CN1CCN(CC(=O)O)CCN(CC(=O)O)CCN(CC(=O)O)CC1)C(=O)N1CCC[C@H]1C(=O)N[C@@H](Cc1ccc(O)cc1)C(=O)N[C@H](C(=O)N[C@@H](CC(C)C)C(=O)O)C(C)(C)C [Compound 19] | pKi ± SD NTS2R [3]: 7.16 ± 0.18; pKi ± SD NTS1R [4]: 7.80 ± 0.03 |
| – | – | – | – | 88 nM | – | 4.4 | 20 nM | – | 30 ± 1% | CC(C)C[C@H](NC(=O)[C@@H](NC(=O)[C@H](Cc1ccc(O)cc1)NC(=O)[C@@H]1CCCN1C(=O)[C@H](CCCNC(N)=NC(=O)NCCCCNC(=O)CN1CCN(CC(=O)O)CCN(CC(=O)O)CCN(CC(=O)O)CC1)N(C)C(=O)[C@@H](N)CCCNC(=N)N)C(C)(C)C)C(=O)O [Compound 22] | % Intact Peptide in Plasma after 1 h ([2]; 1 h, 100 µM, pH 7.4): >99%; % Intact Peptide in Plasma after 6 h ([2]; 6 h, 100 µM, pH 7.4): 87 ± 2%; % Intact Peptide in Plasma after 48 h ([2]; 100 µM, pH 7.4): 7.7 ± 1.0%; pKi ± SD NTS2R [3]: 7.08 ± 0.16; pKi ± SD NTS1R [4]: 7.70 ± 0.07 |
| – | – | – | – | 6.5 nM | 6.03 nM | 1.2 | 5.4 nM | 5.01 nM | – | CN[C@@H](CCCNC(N)=NC(=O)NCCCCN)C(=O)N[C@@H](CCCNC(=N)N)C(=O)N1CCC[C@H]1C(=O)N[C@H](C(=O)N[C@H](C(=O)N[C@@H](CC(C)C)C(=O)O)C(C)(C)C)C(C)(C)c1ccc(O)cc1 [Compound 52] | – |
| – | – | – | – | 450 nM | 398 nM | – | – | – | – | CN[C@@H](CCCNC(N)=NC(=O)NCCCCN)C(=O)N[C@@H](CCCNC(=N)N)C(=O)N1CCC[C@H]1C(=O)N[C@@H](C(=O)N[C@H](C(=O)N[C@@H](CC(C)C)C(=O)O)C(C)(C)C)C(C)(C)c1ccc(O)cc1 [Compound 53] | – |

| Compound | remaining at 1 h, 100 µM [2] | remaining at 6 h, 100 µM [2] | remaining at 24 h, 100 µM [2] | remaining at 48 h, 100 µM [2] | Ki [3, 5] | Ki [3, 6] | NTS1R Selectivity (Ratio Ki (NTS2R)/Ki (NTS1R)) [4] | Ki [4, 7] | Ki [4, 8] | % Intact Peptide in Plasma after 24 h ([2]; 100 µM, pH 7.4) | other results |
| --- | --- | --- | --- | --- | --- | --- | --- | --- | --- | --- | --- |
| CN[C@@H](CCCNC(N)=NC(=O)NCCCCNC(=O)CN1CCN(CC(=O)O)CCN(CC(=O)O)CCN(CC(=O)O)CC1)C(=O)N[C@@H](CCCNC(=N)N)C(=O)N1CCC[C@H]1C(=O)N[C@@H](Cc1ccc(O)cc1)C(=O)N[C@H](C(=O)N[C@@H](CC(C)C)C(=O)O)C(C)(C)C [Compound 16] | – | – | – | – | 150 nM | 138 nM | 4.5 | 33 nM | 33.1 nM | 93 ± 3% | % Intact Peptide in Plasma after 48 h ([2]; 100 µM, pH 7.4): 84 ± 2% |
